Measurements taken from patent US10966426B2, “Herbicidal compositions comprising phenylpyrimidines” (BASF SE, priority 2016, dated 2021).
Several values for one entry are separate records, joined by “and”; a condition that tells them apart may be missing. Equal entries are not always repeated.

Tests used:
Format in all cases: in vivo
Avena fatua = assay: greenhouse post-emergence treatment, AVEFA; conditions: AVEFA
Summary of the method: (§1)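 Scoring used a 0 to 100 scale, with 100 denoting no emergence or full destruction of at least the above-ground parts, recorded within a 2 to 4 week test period. Test plants grew in loamy sand containing about 3.0% humus at 10-25° C. or 20-35° C., after direct sowing or transplanting, and received water-based treatments post-emergence.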

Lolium multiflorum = assay: greenhouse post-emergence treatment, LOLMU; conditions: LOLMU
Summary of the method: as §1

Polygonum convolvulus = assay: greenhouse post-emergence treatment, POLCO; conditions: POLCO, solo Ex. 5 62.5 gai/ha
Summary of the method: (§2)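 Visual herbicidal effect (0–100) recorded over a 2 to 4 week test period after foliar treatment at plant heights of 3 to 15 cm. Expected combination effects derived by the Colby formula from single-component effects X and Y.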

Galium aparine = assay: greenhouse post-emergence treatment, GALAP; conditions: GALAP
Summary of the method: as §2

Apera spica-venti = assay: greenhouse post-emergence treatment, APESV; conditions: APESV, 20 DAT
Method: The culture containers used were plastic pots containing loamy sand with approximately 3.0% of humus as substrate. The seeds of the test plants were sown separately for each species.
For the post-emergence treatment, the test plants were grown to a plant height of from 3 to 15 cm, depending on the plant habit, and only then treated with the active compounds which had been suspended or emulsified in water. To this end, the test plants were either sown directly, and grown in the same containers, or they were first grown separately as seedlings and transplanted into the test containers a few days prior to treatment.
Depending on the species, the plants were kept at 10-25° C. and 20-35° C., respectively.
The test period extended over 2 to 4 weeks. During this time, the plants were tended and their response to the individual treatments was evaluated.
Evaluation was carried out using a scale from 0 to 100. 100 means no emergence of the plants, or complete destruction of at least the above-ground parts, and 0 means no damage or normal course of growth. A good herbicidal activity is given at values of at least 70, and very good herbicidal activity is given at values of at least 85.
The respective stated components A and B, and if appropriate, C were formulated as a 10% by weight strength emulsion concentrate and, with addition of the amount of solvent system, introduced into the spray liquor used for applying the active compound. In the examples, the solvent used was water.
In the examples below, using the method of S. R. Colby (1967) “Calculating synergistic and antagonistic responses of herbicide combinations”, Weeds 15, p. 22ff., the value E, which is expected if the activity of the individual active compounds is only additive, was calculated. E=X+Y−(X·Y/100) where X=effect in percent using herbicide A at an application rate a; • Y=effect in percent using herbicide B at application rate b; • E=expected effect (in %) of herbicide A+herbicide B at application rates a+b.

[1] = Table X12, 20 DAT, solo Ex. 5 62.5 gai/ha
[2] = Table X12, 20 DAT, solo Ex. 5 125 gai/ha

O=C(O)c1nc(C2CC2)ncc1-c1ccccc1Cl [Ex. 5]
80% and 83%: % activity (Lolium multiflorum; solo Ex. 5 125 gai/ha, 20 DAT)
75% and 80% and 60%: % activity (Avena fatua; solo, 125 gai/ha, 20 DAT)
0%: % activity, solo application (Galium aparine; 125 gai/ha, 20 DAT, Table X4) | % activity, solo application (Galium aparine; 125 gai/ha, 20 DAT, Table X5) | % activity, solo application (Galium aparine; 250 gai/ha, 20 DAT, Table X5) | % activity (Galium aparine; Ex. 5 solo, 62.5 gai/ha, 20 DAT) | % activity (Galium aparine; solo Ex. 5 62.5 gai/ha, 20 DAT) | % activity (Galium aparine; solo Ex. 5 125 gai/ha, 20 DAT) | % activity (Galium aparine; solo Ex. 5 125 gai/ha, 21 DAT) | % activity (Galium aparine; [1]) | % activity (Galium aparine; [2]) | % activity (Galium aparine; solo, 62.5 gai/ha, 20 DAT) | % activity (Galium aparine; solo, 125 gai/ha, 20 DAT)
90%: % activity (Avena fatua; Table X12, 20 DAT, solo Ex. 5 250 gai/ha) | % activity (Polygonum convolvulus; 21 DAT)
30%: % activity, solo application (Galium aparine; 250 gai/ha, 20 DAT, Table X4) | % activity (Galium aparine; solo, 250 gai/ha, 20 DAT)
70%: % activity (Avena fatua; Table X12, 20 DAT, solo Ex. 5 31.25 gai/ha) | % activity (Apera spica-venti; solo, 62.5 gai/ha)
75%: % activity (Avena fatua; solo Ex. 5 500 gai/ha, 20 DAT) | % activity (Lolium multiflorum; solo, 62.5 gai/ha, 20 DAT) | % activity (Apera spica-venti; solo Ex. 5 62.5 gai/ha)
85%: % activity (Avena fatua; Ex. 5 solo, 250 gai/ha, 21 DAT) | % activity (Avena fatua; [2]) | % activity (Lolium multiflorum; 21 DAT, solo Ex. 5 125 gai/ha) | % activity (Lolium multiflorum; 21 DAT, solo Ex. 5 250 gai/ha) | % activity (Lolium multiflorum; solo Ex. 5 15 gai/ha, 20 DAT, 2nd series of rows) | % activity (Lolium multiflorum; solo Ex. 5 250 gai/ha, 20 DAT) | % activity (Lolium multiflorum; solo Ex. 5 250 gai/ha, 20 DAT, 2nd series of rows) | % activity (Lolium multiflorum; solo Ex. 5 500 gai/ha, 20 DAT) | % activity (Lolium multiflorum; solo Ex. 5 500 gai/ha, 20 DAT, 2nd series of rows) | % activity (Lolium multiflorum; Table X8, 20 DAT, solo Ex. 5 125 gai/ha) | % activity (Lolium multiflorum; [2])
25%: % activity (Galium aparine; Ex. 5 solo, 250 gai/ha, 21 DAT)
60%: % activity (Polygonum convolvulus; 20 DAT)
10%: % activity (Galium aparine; Ex. 5 solo, 31.25 gai/ha, 21 DAT)
85% and 90%: % activity (Apera spica-venti; solo, 250 gai/ha)
80%: % activity (Avena fatua; Ex. 5 solo, 62.5 gai/ha, 21 DAT) | % activity (Avena fatua; Ex. 5 solo, 125 gai/ha, 21 DAT) | % activity (Avena fatua; solo, 250 gai/ha, 20 DAT) | % activity, solo application (Lolium multiflorum; 125 gai/ha, 20 DAT, Table X4) | % activity, solo application (Lolium multiflorum; 125 gai/ha, 20 DAT, Table X5) | % activity, solo application (Lolium multiflorum; 250 gai/ha, 20 DAT, Table X4) | % activity (Lolium multiflorum; solo Ex. 5 62.5 gai/ha, 20 DAT) | % activity (Lolium multiflorum; solo Ex. 5 62.5 gai/ha, 20 DAT, 2nd series of rows) | % activity (Lolium multiflorum; solo Ex. 5 250 gai/ha, 21 DAT) | % activity (Lolium multiflorum; solo, 250 gai/ha, 20 DAT) | % activity (Apera spica-venti; solo, 125 gai/ha)
20%: % activity (Galium aparine; Table X8, 20 DAT, solo Ex. 5 250 gai/ha)
75% and 80%: % activity (Avena fatua; [1])
70% and 55%: % activity (Avena fatua; solo, 62.5 gai/ha, 20 DAT)
80% and 50%: % activity (Lolium multiflorum; solo, 125 gai/ha, 20 DAT)
